From ChEMBL document CHEMBL1140081 (J Med Chem, 2008)

How the values were obtained:
[1] = target: Human immunodeficiency virus type 1 integrase (Human immunodeficiency virus 1, UniProt Q7ZJM1); test: Inhibition of HIV1 recombinant integrase strand transfer activity
[2] = system: Human immunodeficiency virus 1; test: Antiviral activity against HIV1 3B in human MT4 cells in presence of 50% normal human serum; assay type: functional; conditions: Human immunodeficiency virus 1, 3B, MT4; read-out: CIC95
[3] = system: Human immunodeficiency virus 1; test: Antiviral activity against HIV1 3B in human MT4 cells in presence of 10% heat-inactivated fetal bovine serum; conditions: Human immunodeficiency virus 1, 3B, read-out: CIC95
[4] = system: Human immunodeficiency virus 1; test: Antiviral activity against HIV1 with integrase T66I/L74M/V151I mutation by single cycle infectivity assay in presence of 10%FBS; assay type: functional
[5] = system: Human immunodeficiency virus 1; test: Antiviral activity against HIV1 with integrase T125K/F121Y mutation by single cycle infectivity assay in presence of 10%FBS; assay type: functional
[6] = system: Human immunodeficiency virus 1; test: Antiviral activity against HIV1 with integrase T66I/S153Y mutation by single cycle infectivity assay in presence of 10%FBS; assay type: functional
[7] = system: Human immunodeficiency virus 1; test: Antiviral activity against HIV1 with integrase T66I/M154 mutation by single cycle infectivity assay in presence of 10%FBS; assay type: functional
[8] = system: Human immunodeficiency virus 1; test: Antiviral activity against HIV1 with integrase N155S mutation by single cycle infectivity assay in presence of 10%FBS; assay type: functional
[9] = AUC in dog at 10 mg/kg, po; assay type: ADME, organism-based, Canis lupus familiaris; set-up: dose 10 mg/kg, route oral; conditions: plasma
[10] = Oral bioavailability in po dosed dog; assay type: ADME, organism-based, Canis lupus familiaris; conditions: in vivo
[11] = Cmax in dog at 10 mg/kg, po; assay type: ADME, organism-based, Canis lupus familiaris; set-up: dose 10 mg/kg, route oral; conditions: in vivo
[12] = Protein binding in rhesus monkey plasma; assay type: ADME, cell-free, Macaca mulatta; conditions: read-out: PPB (converted)
[13] = Oral bioavailability in po dosed Sprague-Dawley rat; assay type: ADME, organism-based; conditions: in vivo
[14] = AUC in Sprague-Dawley rat at 3 mg/kg, po; assay type: ADME, organism-based; set-up: dose 3 mg/kg, route oral; conditions: plasma
[15] = Protein binding in Sprague-Dawley rat plasma; assay type: ADME, cell-free; conditions: read-out: PPB (converted)
[16] = Plasma concentration in dog at 10 mg/kg, po after 12 hrs; assay type: ADME, organism-based, Canis lupus familiaris; set-up: dose 10 mg/kg, route oral
[17] = Cmax in Sprague-Dawley rat at 3 mg/kg, po; assay type: ADME, organism-based; set-up: dose 3 mg/kg, route oral; conditions: in vivo
[18] = Protein binding in dog plasma; assay type: ADME, cell-free, Canis lupus familiaris; conditions: read-out: PPB (converted)
[19] = Terminal half life in dog at 10 mg/kg, po; assay type: ADME, organism-based, Canis lupus familiaris; set-up: dose 10 mg/kg, route oral; conditions: in vivo, read-out: beta t1/2 (converted)
[20] = Terminal half life in po dosed Sprague-Dawley rat; assay type: ADME, organism-based; conditions: in vivo
[21] = Protein binding in human plasma; assay type: ADME, cell-free; conditions: read-out: PPB (converted)

Sequence of Human immunodeficiency virus type 1 integrase (Q7ZJM1 whole entry): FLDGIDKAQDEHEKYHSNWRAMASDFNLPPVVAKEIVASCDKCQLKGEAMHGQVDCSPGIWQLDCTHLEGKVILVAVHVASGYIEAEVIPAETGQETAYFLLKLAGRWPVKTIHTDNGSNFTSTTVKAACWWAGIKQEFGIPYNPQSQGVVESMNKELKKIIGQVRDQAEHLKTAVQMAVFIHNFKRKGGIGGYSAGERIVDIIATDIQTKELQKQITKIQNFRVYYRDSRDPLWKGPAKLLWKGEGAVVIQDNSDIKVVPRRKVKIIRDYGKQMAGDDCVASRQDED

SMILES	IC50 [1] [µM]	IC95 [2] [µM]	IC95 [3] [µM]	also measured
COC(=O)C(=O)NC(C)(C)c1nc(C(=O)NCc2ccc(F)cc2)c(O)c(=O)n1C	0.015	> 1	1	–
Cc1nnc(C(=O)NC(C)(C)c2nc(C(=O)NCc3ccc(F)cc3)c(O)c(=O)n2C)[nH]1	0.004	1	0.25	–
O=C(/C=C(\O)c1nc[nH]n1)c1ccc(Cc2ccc(F)cc2)o1 [S-1360]	–	–	–	Activity [4]: 100%; Activity [5]: 50%; Activity [6]: 50%; Activity [7]: 20%; Activity [8]: >50%
Cn1c(C(C)(C)N2CCOCC2)nc(C(=O)NCc2ccc(F)cc2)c(O)c1=O	0.003	0.5	0.065	–
CN(C)S(=O)(=O)NC(C)(C)c1nc(C(=O)NCc2ccc(F)cc2)c(O)c(=O)n1C	0.012	0.5	0.125	–
CN(C)C(=O)C(=O)NC(C)(C)c1nc(C(=O)NCc2ccc(F)cc2)c([O-])c(=O)n1C.[Na+]	–	0.125	–	AUC [9]: 47 µM·h; bioavailability [10]: 93%; Cmax [11]: 32 µM; fraction unbound [12]: 0.82; bioavailability [13]: 36%; AUC [14]: 2.2 µM·h; fraction unbound [15]: 0.65; concentration at 12 h [16]: 0.246 µM; Cmax [17]: 4.1 µM; fraction unbound [18]: 0.62; half-life [19]: 11.9 h; half-life [20]: 2.3 h; fraction unbound [21]: 0.72
CNC(=O)c1nc(C(C)(C)NC(=O)C(=O)N(C)C)n(C)c(=O)c1O	> 5	> 10	> 10	–
Cn1c(C(C)(C)NC(=O)c2cscn2)nc(C(=O)NCc2ccc(F)cc2)c(O)c1=O	0.008	0.312	< 0.078	–
CN(C)C(=O)C(=O)NC(C)(C)c1nc(C(=O)NCc2ccc(F)c(Cl)c2)c(O)c(=O)n1C	0.009	0.13	0.031	–
COc1cccc(CNC(=O)c2nc(C(C)(C)NC(=O)C(=O)N(C)C)n(C)c(=O)c2O)c1OC	0.021	> 1	1	–
CC(=O)NC(C)(C)c1nc(C(=O)NCc2ccc(F)cc2)c(O)c(=O)n1C	0.007	0.4	0.31	–
Cn1c(C(C)(C)NS(C)(=O)=O)nc(C(=O)NCc2ccc(F)cc2)c(O)c1=O	0.008	1	0.062	–
O=C(NCc1ccc(F)cc1)c1nc(N2CCCCS2(=O)=O)c2cccnc2c1O	–	–	–	Activity [4]: 9%; Activity [5]: 12%; Activity [6]: 1.3%; Activity [7]: 3%; Activity [8]: 10%
Cn1c(C(C)(C)NC(=O)C(=O)O)nc(C(=O)NCc2ccc(F)cc2)c(O)c1=O	0.004	1	0.25	–
CN(C)C(C)(C)c1nc(C(=O)NCc2ccc(F)cc2)c(O)c(=O)n1C	0.23	> 1	1	–
